Experimental data reported in US20170253607A1, “LONG-ACTING HIV PROTEASE INHIBITOR” (Shionogi & Co., Ltd., priority 2014, published 2017).

Target: HIV-1 PR (Human immunodeficiency virus type 1 group M subtype B, UniProt P04585)
Assay: HIV-protease inhibitory activity assay (FRET peptide substrate)
Assay type: biochemical
Conditions: Test Example 1
Outline: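 HIV-1 PR (0.83 ng) preincubated with compounds 20 min at room temperature in 0.1 mol/L NaAc, 0.5 mol/L NaCl, 1 mmol/L EDTA, 1 mmol/L DTT, 0.05% Tween 20, pH 4.8. Cleavage of HiLyte Fluor 488/QXL 520 FRET peptide (2 μmol/L) read after 60 minutes at 485/535 nm; IC50 from four-parameter logistic fit.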

| SMILES | IC50 |
| --- | --- |
| COc1ccc(S(=O)(=O)N(CC(C)C)CC(O)C(Cc2ccc(NCc3ccc(-c4sc5c(c4C(=O)O)CC(C)(C)CC5)cn3)cc2)NC(=O)OC2COC3(C)OCCC23)cc1 (stereo not shown) [Compound I-290] | 2.08 nM |
| COc1ccc(S(=O)(=O)N(CC(C)C)CC(O)C(Cc2ccc(NCc3ccc(-c4sc5c(c4C(=O)O)CC(C)(C)CC5)c(F)c3)cc2)NC(=O)OC2COC3(C)OCCC23)cc1 (stereo not shown) [Compound I-291] | 3.54 nM |
| COc1ccc(S(=O)(=O)N(CC(C)C)CC(O)C(Cc2ccc(NCc3ccc(OC)c(-c4sc5c(c4C(=O)O)CC(C)(C)CC5)c3)cc2)NC(=O)OC2COC3(C)OCCC23)cc1 (stereo not shown) [Compound I-293] | 1.9 nM |
| COc1ccc(S(=O)(=O)N(CC(C)C)CC(O)C(Cc2ccc(NCc3cc(-c4sc5c(c4C(=O)O)CC(C)(C)CC5)ccc3OC(F)(F)F)cc2)NC(=O)OC2COC3(C)OCCC23)cc1 (stereo not shown) [Compound I-294] | 3.92 nM |
| COc1ccc(S(=O)(=O)N(CC(C)C)CC(O)C(Cc2ccc(NCc3csc(-c4sc5c(c4C(=O)O)CC(C)(C)CC5)n3)cc2)NC(=O)OC2COC3(C)OCCC23)cc1 (stereo not shown) [Compound I-295] | 2.19 nM |
| COc1ccc(S(=O)(=O)N(CC(C)C)CC(O)C(Cc2ccc(NCc3cc(F)cc(-c4sc5c(c4C(=O)O)CC(C)(C)CC5)c3)cc2)NC(=O)OC2COC3(C)OCCC23)cc1 (stereo not shown) [Compound I-296] | 1.91 nM |
| COc1ccc(S(=O)(=O)N(CC(C)C)CC(O)C(Cc2ccc(N(Cc3ccccc3)Cc3ccccc3-c3sc4c(c3C(=O)O)CC(C)(C)CC4)cc2)NC(=O)OC2COC3(C)OCCC23)cc1 (stereo not shown) [Compound I-299] | 16.5 nM |
| COc1ccc(S(=O)(=O)N(CC(C)C)CC(O)C(Cc2ccc(N3CCc4c(-c5sc6c(c5C(=O)O)CC(C)(C)CC6)cccc43)cc2)NC(=O)OC2COC3(C)OCCC23)cc1 (stereo not shown) [Compound I-300] | 4.78 nM |
| COc1ccc(S(=O)(=O)N(CC(C)C)CC(O)C(Cc2ccc(OCc3ccccc3-c3ccc(-n4nc5c(c4C(=O)O)CC(C)(C)CC5)cc3)cc2)NC(=O)OC2COC3(C)OCCC23)cc1 (stereo not shown) [Compound I-301] | 3.14 nM |
| COc1ccc(S(=O)(=O)N(CC(C)C)CC(O)C(Cc2ccc(OCc3ccccc3-c3ccc(-n4nc(C(=O)O)c5c4CCC(C)(C)C5)cc3)cc2)NC(=O)OC2COC3(C)OCCC23)cc1 (stereo not shown) [Compound I-302] | 2.28 nM |
| COc1ccc(S(=O)(=O)N(CC(C)C)CC(O)C(Cc2ccc(OCc3ccnc(C(=O)O)c3)cc2)NC(=O)OC2COC3(C)OCCC23)cc1 (stereo not shown) [Compound I-306] | 1.89 nM |
| COc1ccc(S(=O)(=O)N(CC(C)C)CC(O)C(Cc2ccc(OCc3cc(Cc4ccc(F)cc4)cnc3C(=O)O)cc2)NC(=O)OC2COC3(C)OCCC23)cc1 (stereo not shown) [Compound I-308] | 1.91 nM |
| COc1ccc(S(=O)(=O)N(CC(C)C)CC(O)C(Cc2ccc(OCCn3ncc(C(=O)O)c3OC(C)C)cc2)NC(=O)OC2COC3(C)OCCC23)cc1 (stereo not shown) [Compound I-309] | 2 nM |
| COc1ccc(S(=O)(=O)N(CC(C)C)CC(O)C(Cc2ccc(OC3CCC(C(C)(C)C(=O)O)CC3)cc2)NC(=O)OC2COC3(C)OCCC23)cc1 (stereo not shown) [Compound I-310] | 1.96 nM |
| COc1ccc(S(=O)(=O)N(CC(C)C)CC(O)C(Cc2ccc(OCc3ccccc3OCC(=O)O)cc2)NC(=O)OC2COC3(C)OCCC23)cc1 (stereo not shown) [Compound I-311] | 1.88 nM |
| COc1ccc(S(=O)(=O)N(CC(C)C)CC(O)C(Cc2ccc(NCc3ccc4scc(C(=O)O)c4c3)cc2)NC(=O)OC2COC3(C)OCCC23)cc1 (stereo not shown) [Compound I-314] | 1.93 nM |
| COc1ccc(S(=O)(=O)N(CC(C)C)CC(O)C(Cc2ccc(NCc3ccccc3OCC(=O)O)cc2)NC(=O)OC2COC3(C)OCCC23)cc1 (stereo not shown) [Compound I-315] | 1.98 nM |
| COc1ccc(S(=O)(=O)N(CC(C)C)CC(O)C(Cc2ccc(NCc3ccc(C(=O)O)cc3)cc2)NC(=O)OC2COC3(C)OCCC23)cc1 (stereo not shown) [Compound I-316] | 1.85 nM |
| COc1ccc(S(=O)(=O)N(CC(C)C)CC(O)C(Cc2ccc(NCc3cc(C(=O)O)c(C)o3)cc2)NC(=O)OC2COC3(C)OCCC23)cc1 (stereo not shown) [Compound I-317] | 1.86 nM |
| COc1ccc(S(=O)(=O)N(CC(C)C)CC(O)C(Cc2ccc(NCc3c(C(=O)O)[nH]c4ccc(Cl)cc34)cc2)NC(=O)OC2COC3(C)OCCC23)cc1 (stereo not shown) [Compound I-319] | 2.09 nM |
| COc1ccc(S(=O)(=O)N(CC(C)C)CC(O)C(Cc2ccc(NCc3cnn4ccc(C(=O)O)nc34)cc2)NC(=O)OC2COC3(C)OCCC23)cc1 (stereo not shown) [Compound I-320] | 1.95 nM |
| COc1ccc(S(=O)(=O)N(CC(C)C)CC(O)C(Cc2ccc(NCc3ccc(OCC(=O)O)cc3)cc2)NC(=O)OC2COC3(C)OCCC23)cc1 (stereo not shown) [Compound I-321] | 1.9 nM |
| COc1ccc(S(=O)(=O)N(CC(C)C)CC(O)C(Cc2ccc(NCc3ccc(-c4sc5c(c4C(=O)O)CC(C)(C)CC5)c4ccccc34)cc2)NC(=O)OC2COC3(C)OCCC23)cc1 (stereo not shown) [Compound I-322] | 10.5 nM |

| SMILES | IC50 |
| --- | --- |
| COc1ccc(S(=O)(=O)N(CC(C)C)CC(O)C(Cc2ccc(NCc3ncn4cc(-c5sc6c(c5C(=O)O)CC(C)(C)CC6)ccc34)cc2)NC(=O)OC2COC3(C)OCCC23)cc1 (stereo not shown) [Compound I-323] | 2.41 nM |
| COc1ccc(S(=O)(=O)N(CC(C)C)CC(O)C(Cc2ccc(OC3CC4CCC(C3)N4c3ccc(C#N)cc3-c3sc4c(c3C(=O)O)CC(C)(C)CC4)cc2)NC(=O)OC2COC3(C)OCCC23)cc1 (stereo not shown) [Compound I-324] | 19.6 nM |
| COc1ccc(S(=O)(=O)N(CC(C)C)CC(O)C(Cc2ccc(OCC3CCN(c4ccc(C#N)cc4-c4sc5c(c4C(=O)O)CC(C)(C)CC5)CC3)cc2)NC(=O)OC2COC3(C)OCCC23)cc1 (stereo not shown) [Compound I-325] | 31.7 nM |
| COc1ccc(S(=O)(=O)N(CC(C)C)CC(O)C(Cc2ccc(OCC3CCCN3c3ccc(C#N)cc3-c3sc4c(c3C(=O)O)CC(C)(C)CC4)cc2)NC(=O)OC2COC3(C)OCCC23)cc1 (stereo not shown) [Compound I-326] | 9.19 nM |
| COc1ccc(S(=O)(=O)N(CC(C)C)CC(O)C(Cc2ccc(OCC3CCCN(c4ccc(C#N)cc4-c4sc5c(c4C(=O)O)CC(C)(C)CC5)C3)cc2)NC(=O)OC2COC3(C)OCCC23)cc1 (stereo not shown) [Compound I-327] | 10.4 nM |
| COc1ccc(S(=O)(=O)N(CC(C)C)CC(O)C(Cc2ccc(OCC3CCCN(c4ccc(C#N)cc4-c4sc5c(c4C(=O)O)CC(C)(C)CC5)C3)cc2)NC(=O)OC2COC3(C)OCCC23)cc1 (stereo not shown) [Compound I-328] | 12.8 nM |
| COc1ccc(S(=O)(=O)N(CC(C)C)CC(O)C(Cc2ccc(OCC3CN(c4ccc(C#N)cc4-c4sc5c(c4C(=O)O)CC(C)(C)CC5)C3)cc2)NC(=O)OC2COC3(C)OCCC23)cc1 (stereo not shown) [Compound I-329] | 7.67 nM |
| COc1ccc(S(=O)(=O)N(CC(C)C)CC(O)C(Cc2ccc(OCC3CCC(Nc4ccc(C#N)cc4-c4sc5c(c4C(=O)O)CC(C)(C)CC5)CC3)cc2)NC(=O)OC2COC3(C)OCCC23)cc1 (stereo not shown) [Compound I-330] | 40.6 nM |
| COc1ccc(S(=O)(=O)N(CC(C)C)CC(O)C(Cc2ccc(OC3CCCN(c4ccc(C#N)cc4-c4sc5c(c4C(=O)O)CC(C)(C)CC5)C3)cc2)NC(=O)OC2COC3(C)OCCC23)cc1 (stereo not shown) [Compound I-331] | 12.3 nM |
| COc1ccc(S(=O)(=O)N(CC(C)C)CC(O)C(Cc2ccc(OC3CCCN(c4ccc(C#N)cc4-c4sc5c(c4C(=O)O)CC(C)(C)CC5)C3)cc2)NC(=O)OC2COC3(C)OCCC23)cc1 (stereo not shown) [Compound I-332] | 7.39 nM |
| COc1ccc(S(=O)(=O)N(CC(C)C)CC(O)C(Cc2ccc(OCC3CCCN3c3ccc(C#N)cc3-c3sc4c(c3C(=O)O)CC(C)(C)CC4)cc2)NC(=O)OC2COC3(C)OCCC23)cc1 (stereo not shown) [Compound I-333] | 11 nM |
| COc1ccc(S(=O)(=O)N(CC(C)C)CC(O)C(Cc2ccc(NCCCc3sc4c(c3C(=O)O)CC(C)(C)CC4)cc2)NC(=O)OC2COC3(C)OCCC23)cc1 (stereo not shown) [Compound I-335] | 1.81 nM |
| COc1ccc(S(=O)(=O)N(CC(C)C)CC(O)C(Cc2ccc(N(C)CCCc3sc4c(c3C(=O)O)CC(C)(C)CC4)cc2)NC(=O)OC2COC3(C)OCCC23)cc1 (stereo not shown) [Compound I-336] | 2.13 nM |
| COc1ccc(S(=O)(=O)N(CC(C)C)CC(O)C(Cc2ccc(N(Cc3ccccc3-c3sc4c(c3C(=O)O)CC(C)(C)CC4)C(C)=O)cc2)NC(=O)OC2COC3(C)OCCC23)cc1 (stereo not shown) [Compound I-339] | 1.83 nM |
| COc1ccc(S(=O)(=O)N(CC(C)C)CC(O)C(Cc2ccc(NCC3(c4ccc(-c5sc6c(c5C(=O)O)CC(C)(C)CC6)cc4)CCCC3)cc2)NC(=O)OC2COC3(C)OCCC23)cc1 (stereo not shown) [Compound I-340] | 5.6 nM |
| COc1ccc(S(=O)(=O)N(CC(C)C)CC(O)C(Cc2ccc(CN(C)C3CCCCC3c3sc4c(c3C(=O)O)CC(C)(C)CC4)cc2)NC(=O)OC2COC3(C)OCCC23)cc1 (stereo not shown) [Compound I-341] | 1.89 nM |
| COc1ccc(S(=O)(=O)N(CC(C)C)CC(O)C(Cc2ccc(CN(C)C3CCCCC3c3sc4c(c3C(=O)O)CC(C)(C)CC4)cc2)NC(=O)OC2COC3(C)OCCC23)cc1 (stereo not shown) [Compound I-342] | 2.06 nM |
| COc1ccc(S(=O)(=O)N(CC(C)C)CC(O)C(Cc2ccc(OCc3ccccc3-c3c(OCc4ccccc4)noc3C(=O)O)cc2)NC(=O)OC2COC3(C)OCCC23)cc1 (stereo not shown) [Compound I-344] | 2.83 nM |
| COc1ccc(S(=O)(=O)N(CC(C)C)CC(O)C(Cc2ccc(CN(C)C3CCCCC3c3sc4c(c3C(=O)O)CC(C)(C)CC4)cc2)NC(=O)OC2COC3(C)OCCC23)cc1 (stereo not shown) [Compound I-345] | 1.82 nM |
| COc1ccc(S(=O)(=O)N(CC(C)C)CC(O)C(Cc2ccc(N3CCC(Oc4ccc(-c5sc6c(c5C(=O)O)CC(C)(C)CC6)cc4)C3)cc2)NC(=O)OC2COC3(C)OCCC23)cc1 (stereo not shown) [Compound I-350] | 5.32 nM |
| COc1ccc(S(=O)(=O)N(CC(C)C)CC(O)C(Cc2ccc(OC3CCN(c4ncccc4-c4sc5c(c4C(=O)O)CC(C)(C)CC5)C3)cc2)NC(=O)OC2COC3(C)OCCC23)cc1 (stereo not shown) [Compound I-355] | 2.35 nM |
| COc1ccc(S(=O)(=O)N(CC(C)C)CC(O)C(Cc2ccc(NCc3ccc(-c4c(C(=O)O)sc5c4CC(C)(C)CC5)cc3)cc2)NC(=O)OC2COC3(C)OCCC23)cc1 (stereo not shown) [Compound I-356] | 3.3 nM |
| COc1ccc(S(=O)(=O)N(CC(C)C)CC(O)C(Cc2ccc(N(C)CC3CCCCC3c3sc4c(c3C(=O)O)CC(C)(C)CC4)cc2)NC(=O)OC2COC3(C)OCCC23)cc1 (stereo not shown) [Compound I-358] | 3.89 nM |
